Several values for one entry are separate records, joined by “and”; a condition that tells them apart may be missing. Equal values may be shown once.
Key:
[1] = system: MOLM-13 cells overexpressing FLAG-tagged wild type CK1α; assay: CK1α mutant rescue, CTG viability, FLAG-CK1α wild type MOLM-13; format: cell-based, human
Experimental: (§1) To evaluate the contribution of the CK1α degradation in SJ3149-mediated cytotoxicity, we utilized the degradation-resistant mutant CK1α G40N[41]. MOLM-13 cells were transduced with lentivirus to overexpress FLAG-tagged wild type CK1α or the G40N mutant, which removes the essential glycine in the CK1α degron G-loop.
The media was changed after cells rested in the 37 °C incubator overnight. […] As described above in the Molecular Glue Library Screening section, transduced MOLM-13 cells were seeded in 384-well plates at 1250 cells per well and allowed to rest overnight. 30 nl of CK1α degraders of interest were deposited on the cells using an Echo 650 acoustic liquid handler […]. […] This was done twice for a total of six technical replicates.

[2] = Metabolic stability in cryopreserved hepatocytes, mouse; format: in vitro ADME; details: mouse, cryopreserved hepatocytes; read-out: Hepatocyte stability t1/2
Experimental: page 34: UHPLC-MS/MS System: Chromatographic separation was performed on an Acquity UPLC BEH […] with 6500+ Qtrap system. […] software suite. The UPLC column was maintained at 55 °C. Mobile phase A was 0.1% formic acid in MilliQ H2O and Mobile phase B was 0.1% formic acid in acetonitrile. The flow rate was 0.9 […] The mass spectrometer was operated in positive-ion mode with electrospray ionization. MRM transition m/z […] plasma stability and plasma protein binding. The following MS parameters were employed for analyte measurements: ion spray voltage 5 kV, temperature 550 °C, gas 1 and gas 2 were 60, entrance potential (EP): 10 V, declustering potential (DP): 50 V, collision energy (CE): 27 V, and collision cell exit potential (CXP): 16 V. Metabolic Stability in mouse and human cryopreserved hepatocytes. 10 mM test compounds were provided by Compound Sample Group. Diluted 10 mM test compounds and 30 mM positive control compounds (7-ethoxycoumarin) to 1 mM and 3 mM with DMSO in 96-well plates. Diluted 1 mM test compounds and 3 mM positive control compounds to 100 μM and 300 μM dosing solutions with ACN. Cryopreserved cells were thawed, isolated and suspended in Incubation Medium, then diluted with pre-warmed Incubation Medium to 0.5 × 10^6cells/mL. Added 198 μL of pre-warmed cell suspensions in 96 -well plates. Transferred 125 μL of stop solution (acetonitrile containing 200 ng/mL tolbutamide and 200 ng/mL labetalol as internal standards) in a set of pre- labeled 96-well plates. Spike d 2 μL dosing solution to each well of 96 -well plates in duplicates. For T0 Samples, mix ed to achieve a homogenous suspension for about 1 min, then immediately transferred 25 μL of each sample into well containing 125 μL of ice -cold stop solution followed by mixing. Incubated all plates at 37°C in a 95% humidified incubator at 5% CO 2 to start the reactions page 35: with constant shaking at about 600 rpm. At 15, 30, 60 and 90 min, mixed samples and then transferred 25 μL of each sample at each time point to well containing 125 μL of ice -cold stop solution followed by mixing. Medium Control (MC) sample plates (labeled as T0-MC and T90- MC) were prepared at T0 and T90 by adding the same components to each well except cell suspensions. At each corresponding time point, stopped the reactions by removing the plates from incubator and mixing with 125 μL of ice-cold stop solution. Vortexed the plates immediately on a plate shaker at 500 rpm for 10 minutes. Then, centrifuge d all sample plates at 3220 x g for 20 min at 4°C. After centrifugation, 80 μL/well of supernatant in the sample plates were transferred to another set of pre-labeled 96-well plates which containing 240 μL of ultra pure water according to the plate map. Analytical plates were sealed and stored at 4°C until LC-MS/MS analysis. Thawing Medium: Williams' Medium E containing 5% fetal bovine serum and 30% Perc oll solution and other supplements. Incubation Medium: Williams' Medium E (no phenol red) containing 2 mM L-Glutamine and 25 mM HEPES. Stop Solution: Acetonitrile containing 200 ng/mL tolbutamide and labetalol as internal standards. Dilution Solution: Ultra-pure water. The remaining percents of test articles after incubation were calculated by the follow equations: Equation ( 6): Use equation of first order kinetics [NT] […] The data was […] concatenated with a reversed decoy database for evaluating False Discovery Rate (FDR). […]

CK1α G40N = target: T1, CK1α G40N (Homo sapiens, UniProt P48729, G40N); assay: Immunoblot of transduced MOLM-13 cells (FLAG-CK1α WT / G40N); format: cell-based; details: 1 μM, 4 h
T1 construct: host or cells: MOLM-13, lentiviral transduction, puromycin selected
T1 sequence (Q96SW2 whole entry partner): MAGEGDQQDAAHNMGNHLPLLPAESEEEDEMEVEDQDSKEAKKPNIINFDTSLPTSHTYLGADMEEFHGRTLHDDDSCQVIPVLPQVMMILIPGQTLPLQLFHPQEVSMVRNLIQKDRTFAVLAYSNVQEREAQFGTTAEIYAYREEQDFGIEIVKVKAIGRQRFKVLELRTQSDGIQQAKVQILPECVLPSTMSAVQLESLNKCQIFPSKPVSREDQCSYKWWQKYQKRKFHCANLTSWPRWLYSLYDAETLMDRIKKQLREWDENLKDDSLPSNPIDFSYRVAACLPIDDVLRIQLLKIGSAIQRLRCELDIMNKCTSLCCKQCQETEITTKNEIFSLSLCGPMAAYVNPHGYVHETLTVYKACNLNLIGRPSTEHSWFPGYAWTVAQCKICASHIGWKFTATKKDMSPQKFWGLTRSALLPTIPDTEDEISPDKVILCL
T1 sequence (Q16531 whole entry partner): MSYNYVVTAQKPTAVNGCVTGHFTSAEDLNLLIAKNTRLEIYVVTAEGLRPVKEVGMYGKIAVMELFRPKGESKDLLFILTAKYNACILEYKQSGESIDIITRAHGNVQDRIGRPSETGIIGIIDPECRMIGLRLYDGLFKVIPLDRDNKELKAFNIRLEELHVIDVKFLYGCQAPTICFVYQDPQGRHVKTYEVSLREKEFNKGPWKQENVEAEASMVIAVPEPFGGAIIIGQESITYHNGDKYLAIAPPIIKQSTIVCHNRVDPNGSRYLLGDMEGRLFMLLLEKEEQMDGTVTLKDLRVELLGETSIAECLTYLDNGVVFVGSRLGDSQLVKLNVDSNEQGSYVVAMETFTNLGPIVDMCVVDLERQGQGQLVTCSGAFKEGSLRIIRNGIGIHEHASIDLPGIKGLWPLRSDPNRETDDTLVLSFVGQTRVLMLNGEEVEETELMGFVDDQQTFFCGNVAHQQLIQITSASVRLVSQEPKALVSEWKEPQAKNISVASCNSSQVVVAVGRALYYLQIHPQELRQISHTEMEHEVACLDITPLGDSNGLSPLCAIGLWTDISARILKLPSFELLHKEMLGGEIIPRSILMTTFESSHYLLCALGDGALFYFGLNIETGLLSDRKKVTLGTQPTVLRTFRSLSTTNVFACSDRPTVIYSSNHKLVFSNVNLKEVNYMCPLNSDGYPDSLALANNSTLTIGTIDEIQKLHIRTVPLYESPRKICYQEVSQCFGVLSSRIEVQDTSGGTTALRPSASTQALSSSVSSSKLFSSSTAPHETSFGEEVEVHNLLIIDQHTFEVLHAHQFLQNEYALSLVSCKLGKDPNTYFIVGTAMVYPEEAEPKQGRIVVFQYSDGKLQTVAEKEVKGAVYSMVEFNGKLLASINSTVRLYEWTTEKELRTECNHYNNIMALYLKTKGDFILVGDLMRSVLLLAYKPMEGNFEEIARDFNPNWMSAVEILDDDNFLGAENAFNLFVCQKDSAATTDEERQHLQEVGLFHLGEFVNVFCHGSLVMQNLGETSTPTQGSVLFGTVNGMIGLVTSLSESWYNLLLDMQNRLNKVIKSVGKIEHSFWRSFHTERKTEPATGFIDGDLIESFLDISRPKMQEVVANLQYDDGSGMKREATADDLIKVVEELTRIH
T1 sequence (P48729 whole entry G40N): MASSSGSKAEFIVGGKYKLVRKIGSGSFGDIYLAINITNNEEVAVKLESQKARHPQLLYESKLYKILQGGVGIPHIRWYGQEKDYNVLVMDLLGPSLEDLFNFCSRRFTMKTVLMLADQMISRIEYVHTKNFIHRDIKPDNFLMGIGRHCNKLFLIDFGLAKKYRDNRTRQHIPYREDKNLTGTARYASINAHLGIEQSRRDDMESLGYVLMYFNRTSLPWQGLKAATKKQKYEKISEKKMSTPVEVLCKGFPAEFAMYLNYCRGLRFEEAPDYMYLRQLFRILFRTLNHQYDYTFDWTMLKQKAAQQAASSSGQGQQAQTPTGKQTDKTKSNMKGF
Experimental: as §1
Frozen pellets of ~1 million cells were lysed in 150 µl of SDS lysis buffer (60 mM Tris/HCl pH 7, 10% glycerol, 2% SDS, 5% beta-mercaptoethanol, 0.02% bromophenol blue, 0.5% protease and phosphatase inhibitor cocktail (Sigma Aldrich)). When cells were resuspended, samples were heated for 3 min at 99 °C then put on ice. Samples were then fragmented by sonication for 10 0.5-s pulses (550 Sonic Dismembrator, Fisher Scientific) and heated again at 99 °C for 2 min. 15 μl of each sample was added to the wells of a 4–20% polyacrylamide gel (Bio-Rad). A mixture of 2 μl of Precision Plus Protein Unstained Standards and 2 μl of Precision Plus Protein All Blue Standards (Bio-Rad) was used for the size marker. After electrophoresis, gels were transferred to nitrocellulose membrane using the Bio-Rad Trans-Blot Turbo system on the mixed molecular weight setting. […] Blots were imaged with the Li-Cor Odyssey CLx and analyzed using Image Studio Version 5.2. […]

Structure (SMILES): O=C1CCC(N2Cc3cc(Nc4noc5ccccc45)ccc3C2=O)C(=O)N1 (stereo not shown) [SJ3149]
- cell viability percentages, CK1a ([1]; Concentration 0.000542): 105.205% and 58.6715% and 64.466% and 67.6161% and 69.6541% and 82.1036%
- cell viability percentages, CK1a ([1]; Concentration 0.001625): 74.2908% and 52.9731% and 67.1789% and 57.7783% and 62.7672% and 68.828%
- cell viability percentages, CK1a ([1]; Concentration 0.004875): 36.1307% and 42.7391% and 40.1045% and 39.1839% and 40.0413% and 49.9053%
- cell viability percentages, CK1a ([1]; Concentration 0.043872): 2.187% and 2.943% and 4.508% and 8.798% and 6.315% and 7.182%
- cell viability percentages, CK1a ([1]; Concentration 0.131617): 3.39% and 3.498% and 5.044% and 4.581% and 3.4782% and 4.037%
- cell viability percentages, CK1a ([1]; Concentration 0.394851): 2.449% and 1.756% and 2.718% and 2.322% and 1.473% and 1.9709%
- cell viability percentages, CK1a ([1]; Concentration 1.18455): 1.709% and 1.723% and 2.012% and 1.573% and 1.103% and 1.1327%
- cell viability percentages, CK1a ([1]; Concentration 3.55366): 1.548% and 0.8978% and 0.8701% and 0.5259% and 0.4164% and 0.8076%
- Bottom (line fit, sigmoidal 4PL) of cell viability, CK1a ([1]; FLAG-CK1a WT cells): 1.012%
- Top (line fit, sigmoidal 4PL) of cell viability, CK1a ([1]; FLAG-CK1a WT cells): 80.73%
- IC50 ([1]; Homo sapiens, MOLM-13, read-out: IC50 (line fit, sigmoidal 4PL) of cell viability, CK1a): 5.26 nM
- half-life at 1 µM [2]: > 3.6 h
- Degradation of G40N mutant CK1α protein (CK1α G40N): resistance of the G40N mutant protein to SJ3149 mediated degradation

— paper PMC10791743, “Selective CK1α degraders exert antiproliferative activity against a broad range of human cancer cell lines” (Nature Communications, 2024)
